Experimental data published in patent US20220281879A1, “SALT AND CRYSTAL FORMS OF AN ACTIVIN RECEPTOR-LIKE KINASE INHIBITOR” (Blueprint Medicines Corporation, priority 2019, published 2022).
In brackets after ≈: the same amount, converted by molar mass. Entries after “also recorded” stand apart in the source; their conditions may differ. Where a name gives a salt, the structure may show the parent alone. Read-outs that look alike come from different tables or passages of the source.

Assays:
[1] = Drying and humidity exposure (>90% RH) with XRPD; settings: for physical stability on humidity exposure: >90% RH, overnight / one day; for physical stability on humidity exposure / stability on drying and humidity exposure: XRPD; for stability on drying and humidity exposure: dried under vacuum at 50° C., then >90% RH one day; for physical stability in humid environment, prolonged: >90% relative humidity, days to one week
Description: XRPD analysis was done in three stages. XRPD of the wet cake was done for all samples (where solids were observed). Unique solids were then left on XRPD plates and dried under vacuum at 50° C. for at least 3 hours. XRPD of unique dry solids was then done. Solids were then exposed to >90% relative humidity for one day and XRPD on resulted solids was done. The humid environment was generated by placing a beaker of saturated potassium sulfate in water in a sealed container. All XRPD patterns were compared to counter ion XRPD patterns and known free molecule patterns.
A crystalline form of the free base was exposed to high humidity (>90% RH) overnight. The humid environment was generated by placing a beaker of saturated potassium sulfate in water in a sealed container.

[2] = Exposure to dry conditions and re-humidification with XRPD; format: physicochemical
Description: The 1:1 Compound (I) Crystalline HCl salt Monohydrate obtained from Example 3.1 was exposed to various drying conditions and then analyzed by XRPD.
The conditions were: (1) room temperature in vial containing P2O5 at 50° C., (2) 60° C. under vacuum, and (3) heating to 140° C. in DSC.
The HCl salt exposed to P2O5 at 50° C. was sampled for XRPD at the 7 day mark.

[3] = Humidity exposure at 75% relative humidity / 40° C. for one week with XRPD; settings: 75% RH / 40° C.
Description: The Sesqui-Succinate obtained in Example 2.1 was exposed to 75% relative humidity at 40° C. for one week. The samples were placed in a 4 mL vial covered with a Kimwipe® and then placed in a 20 mL vial containing 3-4 mL saturated NaCl in water. The 20 mL vials were sealed and held at 40° C. Solids were collected for XRPD analysis after one week.
HCl salt Monohydrate Form A was placed at 40° C./75% relative humidity for one week. About 10 mg sample was placed in a 4 mL vial covered with a Kimwipe®. The vial was then placed inside a 20 mL sealed vial containing saturated aqueous sodium chloride.

[4] = Solubility at 37° C. in water and simulated fluids (FaSSIF, FaSSGF); format: physicochemical; settings: for Solubility at 37° C. FaSSGF: fasted state simulated gastric fluid; for Solubility at 37° C. FaSSIF: fasted state simulated intestinal fluid
Excerpt: Crystalline salts were characterized and evaluated for viability based on melting point, crystallinity, stability on drying and humidity exposure, water solubility, polymorphism, and acceptability of counter-ion.

[5] = Variable humidity and variable temperature XRPD (VH-XRPD, VT-XRPD); format: physicochemical; settings: for variable humidity XRPD: change of crystalline structure: 0-90% RH; for variable temperature XRPD: change of crystalline structure: ambient to 160° C.
Description: Powder X-ray diffraction was done using a Rigaku MiniFlex 600 or a Bruker D8 Advance equipped with Lynxeye detector in reflection mode (i.e. Bragg-Brentano geometry). Samples were prepared on Si zero-return wafers. A typical scan is from 2θ of 4 to 30 degrees, with step size 0.05 degrees over five minutes with 40 kV and 15 mA. A high-resolution scan is from 2θ of 4 to 40 degrees, with step size 0.05 degrees over thirty minutes with 40 kV and 15 mA. Typical parameters for XRPD are listed below.

[6] = Dynamic Vapor Sorption (DVS); format: physicochemical; settings: for XRPD after DVS measurement: after 2-95% RH cycle; for DVS Mass Change: between 2 and 95% relative humidity at 25° C.
Description: Dynamic Vapor Sorption (DVS) was done using a DVS Intrinsic 1. The sample was loaded into a sample pan and suspended from a microbalance. A typical sample mass for DVS measurement is 25 mg. Nitrogen gas bubbled through distilled water provides the desired relative humidity. The sample was held for a minimum of 5 min at each level and only progressed to the next humidity level if there was <0.002% change in weight between measurements (interval: 60 seconds) or […] had elapsed. A typical measurement comprises the steps: • 1—Equilibrate at 50% RH • 2—50% to 2%. (50%, 40%, 30%, 20%, 10% and 2%) • a. Hold minimum of 5 mins and maximum of 60 minutes at each humidity. • The pass criteria is less than 0.002% change • 3—2% to 95% (2%, 10%, 20%, 30%, 40%, 50%, 60%, 70%, 80%, 90%, 95%) • a. Hold minimum of 5 mins and maximum of 60 minutes at each humidity.
The pass criteria is less than 0.002% change • 4—95% to 2% (95%, 80%, 70%, 60%, 50%, 40%, 30%, 20%, 10%, 2%) • a. Hold minimum of 5 mins and maximum of 60 minutes at each humidity. • The pass criteria is less than 0.002% change • 5—2% to 50% (2%, 10%, 20%, 30%, 40%, 50%) • a. Hold minimum of 5 mins and maximum of 60 minutes at each humidity. • The pass criteria is less than 0.002% change

[7] = Solubility in organic solvent systems at room temperature; format: physicochemical; settings: organic solvent or mixture, most organic solvents tested
[8] = listed as Compound (I) Sesqui-Succinate salt Form A
[9] = listed as Compound (I) Sesqui-Succinate Form A
[10] = listed as HCl salt Monohydrate Form A
[11] = listed as free base of Compound (I)

CCOC1(c2ccc(-c3cc4c(N5CCN(C(=O)O[C@@H]6CCOC6)CC5)ccnn4c3)nc2)CCN(C(C)C)CC1 [bis-HCl]
physical stability on humidity exposure [1]: deliquesced | physical stability on humidity exposure ([1]; listed as 2:1 HCl): deliquescence

CCOC1(c2ccc(-c3cc4c(N5CCN(C(=O)O[C@@H]6CCOC6)CC5)ccnn4c3)nc2)CCN(C(C)C)CC1 [fumarate Form B]
stability on drying and humidity exposure [1]: stable on drying and humidity exposure

CCOC1(c2ccc(-c3cc4c(N5CCN(C(=O)O[C@@H]6CCOC6)CC5)ccnn4c3)nc2)CCN(C(C)C)CC1 [maleate]
physical stability on humidity exposure [1]: deliquescence; also recorded: deliquesced | physical stability on humidity exposure ([1]; listed as maleic acid): deliquesced

CCOC1(c2ccc(-c3cc4c(N5CCN(C(=O)O[C@@H]6CCOC6)CC5)ccnn4c3)nc2)CCN(C(C)C)CC1 [Form D]
form conversion on exposure to ambient conditions ([2]; bench, 22-23° C., 28-35% RH, 2.25 hours): converted to Form A | physical stability on humidity exposure [1]: converted to Form A (monohydrate) | physical stability after one week humidity exposure [3]: converted to Form A (monohydrate)

CCOC1(c2ccc(-c3cc4c(N5CCN(C(=O)O[C@@H]6CCOC6)CC5)ccnn4c3)nc2)CCN(C(C)C)CC1 [Form I]
physical stability on humidity exposure [1]: partially converted to Form A

CCOC1(c2ccc(-c3cc4c(N5CCN(C(=O)O[C@@H]6CCOC6)CC5)ccnn4c3)nc2)CCN(C(C)C)CC1 [Succinate Form A]
solubility in water and in simulated gastric fluids (in words) [4]: good solubility | Solubility at 37° C. FaSSGF [4]: >25.9 mg/mL | Solubility at 37° C. FaSSIF [4]: >22.2 mg/mL | solubility in water and simulated fluids (all fluids) ([4]; in all fluids): > 22 mg/mL | Solubility at 37° C. Water ([4]; water): >34.0 mg/mL | solubility ([4]; water, FaSSIF and FaSSGF (all fluids), thermodynamic from solid, in all fluids): > 22 mg/mL | variable humidity XRPD: change of crystalline structure [5, 8]: no change in the crystalline structure | variable temperature XRPD: change of crystalline structure [5, 8]: no change in the crystalline structure | physical stability on humidity exposure ([1]; listed as succinic acid): did not deliquesce | stability on drying and humidity exposure [1]: stable on drying and humidity exposure | hygroscopicity (in words) [6]: less hygroscopic than the mono-HCl salt and freebase | DVS mass change occurring above 80% relative humidity ([6]; 25° C., above 80% RH): 0.34-0.35 wt. % | XRPD after DVS measurement [6, 9]: remained as Form-A | DVS Mass Change [6]: 0.59-0.60 wt. % | DVS Mass Change [6, 9]: 0.59-0.60 wt. % | hygroscopicity (in words) ([6]; listed as 1.5:1 succinic acid salt): non-hygroscopic | physical stability after one week humidity exposure [3, 9]: physically stable by XRPD

CCOC1(c2ccc(-c3cc4c(N5CCN(C(=O)O[C@@H]6CCOC6)CC5)ccnn4c3)nc2)CCN(C(C)C)CC1 [Salicylate]
physical stability on humidity exposure ([1]; listed as salicylic acid): did not deliquesce

CCOC1(c2ccc(-c3cc4c(N5CCN(C(=O)O[C@@H]6CCOC6)CC5)ccnn4c3)nc2)CCN(C(C)C)CC1 [fumarate]
solubility in water and in simulated gastric fluids (in words) [4]: good solubility

CCOC1(c2ccc(-c3cc4c(N5CCN(C(=O)O[C@@H]6CCOC6)CC5)ccnn4c3)nc2)CCN(C(C)C)CC1 [Besylate]
physical stability on humidity exposure [1]: deliquesced | physical stability on humidity exposure ([1]; listed as besylate): deliquescence

CCOC1(c2ccc(-c3cc4c(N5CCN(C(=O)O[C@@H]6CCOC6)CC5)ccnn4c3)nc2)CCN(C(C)C)CC1 [Amorphous solid (Compound (I) Sesqui-Succinate)]
physical stability after one week humidity exposure [3]: crystalline Form A

CCOC1(c2ccc(-c3cc4c(N5CCN(C(=O)O[C@@H]6CCOC6)CC5)ccnn4c3)nc2)CCN(C(C)C)CC1 [Mono-HCl Form A]
solubility in water and in simulated gastric fluids (in words) [4]: good solubility | Solubility at 37° C. FaSSGF [4]: 6.96 mg/mL | Solubility at 37° C. FaSSGF ([4]; listed as mono-HCl salt): > 30 mg/mL | Solubility at 37° C. FaSSIF [4]: 30.9 mg/mL | Solubility at 37° C. FaSSIF ([4]; listed as mono-HCl salt): ~7 mg/mL | Solubility at 37° C. Water ([4]; water): 33.4 mg/mL | Solubility at 37° C. Water ([4]; water, listed as mono-HCl salt): > 30 mg/mL | XRPD after exposure to drying conditions ([2]; P2O5 at 50° C., 60° C. under vacuum, heating to 140° C. in DSC): a new XRPD pattern was observed | variable humidity XRPD: change of crystalline structure [5, 10]: small shift | variable temperature XRPD: change of crystalline structure [5, 10]: does not appear to collapse and/or re-arrange | physical stability on humidity exposure ([1]; listed as HCl (1 eq.)): did not deliquesce | DVS mass change occurring below 20% relative humidity ([6]; 25° C., below 20% RH): 0.99-1.11 wt. % | XRPD after DVS measurement [6, 10]: extra peaks were observed | DVS Mass Change [6]: 1.30-1.43 wt. % | DVS Mass Change [6, 10]: 1.30-1.43 wt. % | hygroscopicity (in words) ([6]; listed as 1:1 hydrochloric acid salt): non-hygroscopic | physical stability after one week humidity exposure [3, 10]: minor peak shifts

CCOC1(c2ccc(-c3cc4c(N5CCN(C(=O)O[C@@H]6CCOC6)CC5)ccnn4c3)nc2)CCN(C(C)C)CC1 [Compound (I)]
Solubility at 37° C. FaSSGF ([4]; listed as Freebase): 7.29 mg/mL (≈ 13 mM) | Solubility at 37° C. FaSSGF ([4]; listed as freebase): ~17 mg/mL (≈ 30.2 mM) | Solubility at 37° C. FaSSIF ([4]; listed as Freebase): 17.9 mg/mL (≈ 31.8 mM) | Solubility at 37° C. FaSSIF ([4]; listed as freebase): ~7 mg/mL (≈ 12.4 mM) | Solubility at 37° C. Water ([4]; water, listed as freebase): 0.08 mg/mL (≈ 0.142 mM) | solubility [7]: > 200 mg/mL | physical stability on humidity exposure ([1]; listed as free base): lost some crystallinity | physical stability in humid environment, prolonged ([1]; listed as free base): deliquesced | physical stability in humid environment, prolonged [1, 11]: physically unstable | physical stability in humid environment, prolonged ([1]; listed as freebase): turned into a sticky gum | behaviour on exposure to water [1, 11]: tends to gum | behaviour on exposure to water ([1]; listed as freebase): gums in water | DVS mass change occurring above 70% relative humidity ([6]; 25° C., above 70% RH): 0.46-0.53 wt. % | DVS Mass Change ([6]; listed as Freebase): 0.88-0.92 wt. % | DVS Mass Change [6, 11]: 0.88-0.92 wt. %

CCOC1(c2ccc(-c3cc4c(N5CCN(C(=O)O[C@@H]6CCOC6)CC5)ccnn4c3)nc2)CCN(C(C)C)CC1 [Benzoate]
water solubility (in words) ([4]; salt screening evaluation): poor water solubility | physical stability on humidity exposure ([1]; listed as benzoic acid): did not deliquesce
